Measurements published in patent US20260042802A1, “POLYPEPTIDE AND USE THEREOF” (priority 2024, published 2026).
Where a SMILES comes first, the peptide text is derived from it. Bridges are numbered along the chain shown (N, C = ends).

What was measured:
sciatic nerve in rats = assay: Compound action potential (CAP) of the sciatic nerve in rats; format: in vivo, Sprague-Dawley (SD) rats; conditions: 20 μL of 30, 100, 300 nM on sciatic nerve; before and after needling; vs negative control group (p<0.05)
Protocol: Four SPF-grade healthy Sprague-Dawley (SD) rats are randomly selected, half males and half females, weighing 180˜200 g, 6˜8 weeks old. The rats are first acclimatized and fed for 1 week, fasted for 12 h before the experiment, with free access to water.
Rats weighing between 180 g and 200 g are taken and anesthetized with 7% chloral hydrate solution at a concentration of 0.4 mL/100 g. […] Then, the fully anesthetized rats are placed on the operating table so that their backs are facing upwards and their paws are held in place with a string. The skin and connective tissue of the leg are cut sequentially, and the muscles between the biceps femoris and the gluteus superficialis are bluntly-dissected. […]
Observations are performed on rats in the polypeptide PPN-01 group and in the negative control drug lidocaine group, and the effect of each concentration of polypeptide PPN-01 on the peak amplitude of the positive and negative phases of the CAP in the sciatic nerve of rats is assessed by the inhibition rate. […]
Four to six CAPs within 2 min after each recording time period are selected for analysis, and the mean peak amplitude is calculated as the representative CAP peak amplitude and time course for each group, with the peak amplitude of the CAP being the difference between the baseline and the peak CAP.

Nav1.5 = target: T1, Nav1.5 (Homo sapiens, UniProt Q14524); assay: Whole-cell patch clamp on Nav1.5 overexpressing HEK293 cells; format: cell-based; conditions: 300 nM; −90 mV to +40 mV, 30 ms; n=5
T1 construct: expressed in transfected cells; host or cells: HEK293
T1 sequence (Q14524 whole entry): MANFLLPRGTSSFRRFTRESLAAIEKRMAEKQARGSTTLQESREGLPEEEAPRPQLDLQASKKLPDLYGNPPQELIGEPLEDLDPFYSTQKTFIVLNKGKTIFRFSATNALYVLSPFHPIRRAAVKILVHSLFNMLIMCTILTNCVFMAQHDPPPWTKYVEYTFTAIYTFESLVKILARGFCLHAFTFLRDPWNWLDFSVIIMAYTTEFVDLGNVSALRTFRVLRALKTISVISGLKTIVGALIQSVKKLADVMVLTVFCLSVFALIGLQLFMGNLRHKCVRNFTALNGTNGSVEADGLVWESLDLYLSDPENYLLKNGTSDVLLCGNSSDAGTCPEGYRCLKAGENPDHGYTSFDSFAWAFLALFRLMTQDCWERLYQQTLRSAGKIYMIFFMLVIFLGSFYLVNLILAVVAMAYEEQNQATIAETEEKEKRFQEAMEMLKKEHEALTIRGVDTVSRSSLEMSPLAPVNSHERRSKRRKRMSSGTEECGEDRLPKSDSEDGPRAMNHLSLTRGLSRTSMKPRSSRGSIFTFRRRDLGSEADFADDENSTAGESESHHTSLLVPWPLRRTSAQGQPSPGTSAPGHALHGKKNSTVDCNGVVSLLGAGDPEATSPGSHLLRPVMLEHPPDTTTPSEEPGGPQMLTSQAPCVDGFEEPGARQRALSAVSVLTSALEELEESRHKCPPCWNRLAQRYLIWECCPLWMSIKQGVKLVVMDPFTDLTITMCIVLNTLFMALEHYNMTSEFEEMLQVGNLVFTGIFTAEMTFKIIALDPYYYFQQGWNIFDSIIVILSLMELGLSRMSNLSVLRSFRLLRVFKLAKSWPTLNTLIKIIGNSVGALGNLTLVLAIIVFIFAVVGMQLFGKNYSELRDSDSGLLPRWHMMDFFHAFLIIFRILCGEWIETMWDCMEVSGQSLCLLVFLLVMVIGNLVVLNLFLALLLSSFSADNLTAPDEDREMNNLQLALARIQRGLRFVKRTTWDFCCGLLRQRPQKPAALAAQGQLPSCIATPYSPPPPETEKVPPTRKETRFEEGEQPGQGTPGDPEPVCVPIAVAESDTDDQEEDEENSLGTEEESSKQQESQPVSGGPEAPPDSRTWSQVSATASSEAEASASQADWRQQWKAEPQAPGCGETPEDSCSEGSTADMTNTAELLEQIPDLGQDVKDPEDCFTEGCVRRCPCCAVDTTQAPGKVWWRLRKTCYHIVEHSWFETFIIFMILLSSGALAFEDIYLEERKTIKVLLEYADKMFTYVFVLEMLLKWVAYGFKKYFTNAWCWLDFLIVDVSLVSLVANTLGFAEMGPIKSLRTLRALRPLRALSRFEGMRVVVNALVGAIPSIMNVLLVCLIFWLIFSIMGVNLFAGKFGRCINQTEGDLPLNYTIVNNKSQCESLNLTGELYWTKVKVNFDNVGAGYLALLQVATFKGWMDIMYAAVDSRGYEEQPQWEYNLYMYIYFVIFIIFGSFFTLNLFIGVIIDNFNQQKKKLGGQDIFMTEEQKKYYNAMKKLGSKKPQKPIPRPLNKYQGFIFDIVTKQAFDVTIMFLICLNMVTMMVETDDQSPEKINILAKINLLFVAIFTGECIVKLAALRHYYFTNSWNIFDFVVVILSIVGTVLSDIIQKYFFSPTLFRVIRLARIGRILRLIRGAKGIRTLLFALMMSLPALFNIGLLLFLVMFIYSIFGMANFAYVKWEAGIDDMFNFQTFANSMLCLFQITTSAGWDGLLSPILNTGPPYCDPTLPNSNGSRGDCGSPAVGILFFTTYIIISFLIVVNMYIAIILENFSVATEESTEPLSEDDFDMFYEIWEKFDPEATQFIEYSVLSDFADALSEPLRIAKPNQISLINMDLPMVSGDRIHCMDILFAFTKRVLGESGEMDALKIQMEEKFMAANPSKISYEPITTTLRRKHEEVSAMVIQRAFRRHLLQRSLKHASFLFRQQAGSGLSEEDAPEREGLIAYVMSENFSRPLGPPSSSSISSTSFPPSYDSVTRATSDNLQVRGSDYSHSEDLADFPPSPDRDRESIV
Protocol: The effect of the polypeptide PPN-01 provided in Example 1 on voltage gated sodium channels is studied using the glass microelectrodes prepared as described above in Example 2 and employing the whole-cell membrane clamp techniques. The specific operations are as follows:
1. Firstly, internal electrode solution is placed on ice to defrost; after defrosting, an appropriate amount of internal electrode solution is drawn up with a 1 ml syringe; and after a homemade filler is applied to the tip end of the syringe, the air in the tube is emptied to fill the entire filler with internal electrode solution. Secondly, internal electrode solution in the filler is poured into the glass microelectrode from a rear part thereof by using the rear part perfusion method; internal electrode solution is slowly injected into the glass microelectrode; and the amount of perfusion is generally ⅓ to ½ of a length of the glass microelectrode (it is necessary to ensure that the silver wire of the electrode may fully contact internal electrode solution, but also to avoid electrode contamination resulting from too much internal electrode solution). […]

CSCC[C@@H]1NC(=O)CNC(=O)[C@H](CCC(=O)O)NC(=O)[C@@H]2CSSC[C@H](NC(=O)[C@H](Cc3ccc(O)cc3)NC(C)=O)C(=O)N[C@@H](CCC(N)=O)C(=O)N[C@@H](CCCCN)C(=O)N[C@@H](Cc3ccccc3)C(=O)N[C@@H](CC(C)C)C(=O)N[C@@H](C)C(=O)N3CCC[C@H]3C(=O)N[C@H]3CSSC[C@H](NC(=O)[C@H](CCC(=O)O)NC1=O)C(=O)N[C@@H](CCCCN)C(=O)N[C@@H](CC(C)C)C(=O)N[C@@H](Cc1c[nH]c4ccccc14)C(=O)N[C@H](C(=O)N[C@@H](CCCCN)C(=O)N[C@@H](CCCCN)C(=O)N[C@@H](CCCCN)C(=O)N[C@@H](CC(C)C)C(=O)N[C@@H](Cc1c[nH]c4ccccc14)C(N)=O)CSSC[C@H](NC(=O)[C@H](CCCCN)NC(=O)[C@H](CCCNC(=N)N)NC(=O)[C@H](CCC(=O)O)NC(=O)[C@H](CO)NC(=O)[C@H](CC(=O)O)NC3=O)C(=O)N2 [PPN-01] (Ac-YCQKFLAPCDSERKCCEGMECKLWCKKKLW-NH2; disulfide 2-16, 9-21, 15-25)
peak amplitude of CAP (positive and negative phases) (sciatic nerve in rats): significantly decreased
inhibition effect on Nav1.5 overexpressing HEK293 cells (Nav1.5): no significant inhibition effect
